Columns and labels:
[1] = test system: tumour blood flow; conditions: human tumours, well-tolerated doses, dynamic MRI; cited from earlier work
[2] = test system: colon 38 tumours; assay: Tumour growth delay assay; type: in vivo, mice
Description: C57B1/6 mice from the Animal Resource Unit, University of Auckland, were bred and housed under conditions of constant temperature and humidity, with sterile bedding and food, according to institutional ethical guidelines. All mice were aged between 8 and 12 weeks.
DMXAA was synthesized as the sodium salt (Rewcastle et al., (1990) Journal of National Cancer Institute 82:528-529). DMXAA sodium salt was dissolved in neutral aqueous solution and 25 mg/kg, in a volume of 0.1 ml per 10 g body weight, was injected intraperitoneally (i.p.) into mice.
Vioxx™ (Sigma) was made up in neutral aqueous solution and 100 or 150 mg/kg, in a volume of 0.1 ml per 10 g body weight, was injected intraperitoneally (i.p.) into mice. […]
Colon 38 tumour fragments (˜1 mm^3) were implanted subcutaneously (s.c.) in anaesthetized (sodium pentobarbitone, 90 mg/kg) mice. […] Tumour-bearing mice were treated with drugs according to the administration schedule described before, and the tumours measured using calipers, at three day intervals thereafter. Tumour volumes were calculated as 0.52a^2b, where a and b are the minor and major axes of the tumour, respectively. The arithmetic means were calculated for each time point, counting cured tumours as zero volume. The growth delay was determined as the difference in the number of days required for the control versus treated tumours to increase four times in volume. […]

Compound | tumour blood flow [1] | mice cured ([2]; DMXAA alone 25 mg/kg i.p., colon 38 tumours s.c. in mice, 6 mice) | effect on the growth of colon 38 tumours ([2]; Vioxx alone 150 mg/kg i.p., colon 38 tumours s.c. in C57Bl/6 mice)
Cc1ccc2c(=O)c3cccc(CC(=O)O)c3oc2c1C [DMXAA, 5,6-dimethylxanthenone-4-acetic acid] | significant reduction | None and no cure | –
CS(=O)(=O)c1ccc(C2=C(c3ccccc3)C(=O)OC2)cc1 [Vioxx™, rofecoxib, reference compound] | – | – | no significant effect

Reference: patent US20070082937A1, “Anti cancer combinations comprising a cox-2 inhibitor” (Cancer Research Technology Limited, priority 2003, published 2007)
